These compounds were tested against PIK3CA (human) (UniProt P42336) (assay: Assessment of PI3KCA Kinase Activity).
PIK3CA (human), sequence (P42336 whole entry, looked up): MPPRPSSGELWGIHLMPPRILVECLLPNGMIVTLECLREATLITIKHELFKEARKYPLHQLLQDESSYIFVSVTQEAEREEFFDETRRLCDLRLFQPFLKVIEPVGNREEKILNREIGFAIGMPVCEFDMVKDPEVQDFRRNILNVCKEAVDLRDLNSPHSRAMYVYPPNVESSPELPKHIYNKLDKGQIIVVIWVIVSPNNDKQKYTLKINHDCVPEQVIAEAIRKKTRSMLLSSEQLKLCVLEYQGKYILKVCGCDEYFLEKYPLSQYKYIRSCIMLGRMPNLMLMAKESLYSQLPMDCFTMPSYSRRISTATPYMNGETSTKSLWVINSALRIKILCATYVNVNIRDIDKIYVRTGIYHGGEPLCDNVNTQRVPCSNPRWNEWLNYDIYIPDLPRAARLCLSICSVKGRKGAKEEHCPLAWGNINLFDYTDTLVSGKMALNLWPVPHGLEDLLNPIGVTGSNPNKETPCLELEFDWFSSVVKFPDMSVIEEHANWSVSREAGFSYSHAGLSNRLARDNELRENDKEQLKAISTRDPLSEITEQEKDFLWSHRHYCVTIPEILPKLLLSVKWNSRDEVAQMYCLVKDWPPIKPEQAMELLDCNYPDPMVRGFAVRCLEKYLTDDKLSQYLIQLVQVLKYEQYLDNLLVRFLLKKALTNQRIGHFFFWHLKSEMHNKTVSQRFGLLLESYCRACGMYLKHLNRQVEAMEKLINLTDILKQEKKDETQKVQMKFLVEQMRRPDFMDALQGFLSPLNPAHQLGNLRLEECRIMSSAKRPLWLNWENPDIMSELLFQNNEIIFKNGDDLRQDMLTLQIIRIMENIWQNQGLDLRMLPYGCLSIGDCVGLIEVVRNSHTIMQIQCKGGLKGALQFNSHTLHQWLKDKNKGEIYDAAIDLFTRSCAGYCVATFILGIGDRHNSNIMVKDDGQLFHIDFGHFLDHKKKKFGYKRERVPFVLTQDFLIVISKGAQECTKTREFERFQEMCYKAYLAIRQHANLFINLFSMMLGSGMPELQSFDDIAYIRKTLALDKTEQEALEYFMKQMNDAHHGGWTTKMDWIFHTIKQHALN

Row | Compound | IC50 [µM]
1 | CCOc1nc(-c2ccnc(NC(=O)c3ccco3)c2)sc1-c1nnc[nH]1 | 0.1 to 1
2 | Cc1nn2ccccc2c1-c1nc(C(C)(C)C)c(-c2nnc[nH]2)s1 | < 0.1
3 | Cc1n[nH]c(C)c1-c1nc(-c2c(C)nn3ccccc23)sc1-c1nc[nH]n1 | < 0.1
4 | Cc1nn2ccccc2c1-c1nc(-c2ccccc2Cl)c(-c2nnc[nH]2)s1 | < 0.1
5 | CC(=O)Nc1cc(-c2nc(-c3cn(C)nc3C(F)(F)F)c(-c3ncc[nH]3)s2)ccn1 | < 0.1
6 | Cc1nc2ccc(-c3cnn(C)c3)cn2c1-c1nc(-c2ccccc2)c(-c2nc[nH]n2)s1 | < 0.1
7 | CNc1ncc(Cl)c(-c2sc(-c3nnc[nH]3)c(-c3ccc(Cl)cc3Cl)c2C#N)n1 | 0.1 to 1
8 | CC(=O)Nc1cc(-c2nc(-c3cccc(C)c3)c(-c3ncc[nH]3)s2)ccn1 | 0.1 to 1
9 | Cc1nn2ccccc2c1-c1nc(-c2ccoc2)c(-c2nnc[nH]2)s1 | < 0.1
10 | Cc1nn2ccccc2c1-c1nc(-c2ccccc2F)c(-c2nnc[nH]2)s1 | < 0.1
11 | CC(=O)Nc1cc(-c2nc(NC(C)=O)c(-c3ncc[nH]3)s2)ccn1 | 0.1 to 1
12 | COc1cccc(F)c1-c1nc(-c2c(C)nn3ccc(OCCN4CCOCC4)cc23)sc1-c1nc[nH]n1 | < 0.1
13 | Cc1nn2ccsc2c1-c1nc(-c2ccccc2)c(-c2nccs2)s1 | < 0.1
14 | O=C(CCN1CCOCC1)Nc1cc(-c2nc(-c3ccccc3)c(-c3nnc[nH]3)s2)ccn1 | 0.1 to 1
15 | N#Cc1c(-c2ccnc(N)c2)sc(-c2ncc[nH]2)c1-c1ccc(Cl)cc1Cl | < 0.1
16 | CCOc1nc(-c2ccnc(NC(=O)Cc3ccccc3)c2)sc1-c1nnc[nH]1 | 0.1 to 1
17 | COc1ccc(-c2nc(-c3ccnc(NC(C)=O)c3)sc2-c2ncc[nH]2)cc1 | 0.1 to 1
18 | COc1cncc(-c2nc(-c3ccnc(NC(C)=O)c3)sc2-c2ncc[nH]2)c1 | 0.1 to 1
19 | N#Cc1c(-c2ccnc(NC(=O)CCl)c2)sc(-c2nnc[nH]2)c1-c1ccc(Cl)cc1Cl | < 0.1

Row | Compound | IC50 [µM]
20 | Cc1nn2ccc(OC3CCNCC3)cc2c1-c1nc(-c2ccccc2)c(-c2nc[nH]n2)s1 | < 0.1
21 | CCOc1nc(-c2ccnc(NC(=O)c3ccno3)c2)sc1-c1nnc[nH]1 | < 0.1
22 | Cc1nn2ccccc2c1-c1nc(-c2c(F)cccc2F)c(-c2nc[nH]n2)s1 | < 0.1
23 | COc1cccc(F)c1-c1ccc2nc(C)c(-c3nc(-c4ccccc4)c(-c4nc[nH]n4)s3)n2c1 | 0.1 to 1
24 | N#Cc1c(-c2cc(N)ncn2)sc(C(N)=O)c1-c1ccc(Cl)cc1Cl | 0.1 to 1
25 | COc1cccc(F)c1-c1nc(-c2c(C)nn3ccccc23)sc1-c1nc[nH]n1 | < 0.1
26 | Clc1ccc(-c2cc(-c3ccnc4[nH]cnc34)sc2-c2ncc[nH]2)c(Cl)c1 | < 0.1
27 | CCOc1nc(-c2ccnc(NC(=O)c3ccc(OC)cc3)c2)sc1-c1nnc[nH]1 | 0.1 to 1
28 | O=C(CCSc1ccccc1)Nc1cc(-c2nc(-c3ccccc3)c(-c3nnc[nH]3)s2)ccn1 | 0.1 to 1
29 | CC(=O)Nc1cc(-c2nc(-c3ccc(Cl)c(Cl)c3)c(-c3ncc[nH]3)s2)ccn1 | < 0.1
30 | COCCCNc1cc(-c2sc(-c3nnc[nH]3)c(-c3ccc(Cl)cc3Cl)c2C#N)ccn1 | 0.1 to 1
31 | N#Cc1c(-c2ccnc(N)c2)sc(-c2nnc[nH]2)c1-c1ccc(Cl)cc1Cl | < 0.1
32 | COc1ccc(-c2nc(-c3c(C)nn4ccccc34)sc2-c2nc[nH]n2)c(OC)c1 | < 0.1
33 | CC(=O)Nc1cc(-c2sc(-c3nnc[nH]3)c(-c3ccc(Cl)cc3Cl)c2C#N)c(F)cn1 | 0.1 to 1
34 | Cc1nn2ccccc2c1-c1nc(-c2cnc3[nH]ccc3c2)c(-c2nc[nH]n2)s1 | < 0.1
35 | CC(=O)Nc1cc(-c2nc(-c3ccc(Cl)cc3Cl)c(-c3nnc[nH]3)s2)ccn1 | < 0.1
36 | N#Cc1c(-c2ccnc(NC(=O)CN)c2)sc(-c2nnc[nH]2)c1-c1ccc(Cl)cc1Cl | < 0.1
37 | CC(=O)Nc1cc(-c2nc(-c3cccc(C(F)(F)F)c3)c(-c3ncc[nH]3)s2)ccn1 | 0.1 to 1
38 | Cc1nn2ccccc2c1-c1nc(-c2ccc(N3CCOCC3)nc2)c(-c2nc[nH]n2)s1 | 0.1 to 1

Row | Compound | IC50 [µM]
39 | Cc1nc2ccc(C3CCCCC3)cn2c1-c1nc(-c2ccccc2)c(-c2nc[nH]n2)s1 | 0.1 to 1
40 | CNCC(=O)Nc1cc(-c2sc(-c3nnc[nH]3)c(-c3ccc(Cl)cc3Cl)c2C#N)ccn1 | 0.1 to 1
41 | CC(=O)Nc1cc(-c2nc(-c3ccc(Cl)cc3Cl)c(-c3ncc[nH]3)s2)ccn1 | < 0.1
42 | N#Cc1c(-c2ccnc(NCCCO)n2)sc(-c2nnc[nH]2)c1-c1ccc(Cl)cc1Cl | < 0.1
43 | CCOc1nc(-c2ccnc(NC(=O)COC)c2)sc1-c1nnc[nH]1 | 0.1 to 1
44 | CCNc1cc(-c2nc(-c3cc(CCN)ccc3Cl)c(-c3ncc[nH]3)s2)ccn1 | 0.1 to 1
45 | COCC(=O)Nc1cc(-c2sc(-c3nnc[nH]3)c(-c3ccc(Cl)cc3Cl)c2C#N)ccn1 | < 0.1
46 | CC(=O)Nc1cc(-c2nc(-c3cc(C(=O)N4CCCC4)ccc3F)c(-c3ncc[nH]3)s2)ccn1 | 0.1 to 1
47 | Cc1nn2ccccc2c1-c1nc(-c2cnn(Cc3cccnc3)c2)c(-c2nc[nH]n2)s1 | 0.1 to 1
48 | Cc1nn2ccccc2c1-c1nc(-c2cn(C)nc2C(F)(F)F)c(-c2nc[nH]n2)s1 | < 0.1
49 | CC(=O)Nc1cc(-c2sc(-c3nccn3C)c(-c3ccc(Cl)cc3Cl)c2C#N)ccn1 | 0.1 to 1
50 | CCOc1nc(-c2ccnc(NC(=O)COc3ccccc3)c2)sc1-c1nnc[nH]1 | 0.1 to 1
51 | N#Cc1c(-c2ccnc(N)c2)sc(-c2ccn[nH]2)c1-c1ccc(Cl)cc1Cl | 0.1 to 1
52 | Cc1nn2ccc(OCCN3CCNC(=O)C3)cc2c1-c1nc(-c2ccccc2)c(-c2nc[nH]n2)s1 | < 0.1
53 | N#Cc1c(-c2ccnc(NC(=O)c3cccnc3)c2)sc(-c2nnc[nH]2)c1-c1ccc(Cl)cc1Cl | 0.1 to 1
54 | N#Cc1c(-c2ccnc(NC(=O)c3cnccn3)c2)sc(-c2nnc[nH]2)c1-c1ccc(Cl)cc1Cl | 0.1 to 1
55 | CCOC(=O)Nc1cc(-c2nc(OCC)c(-c3nc[nH]n3)s2)ccn1 | < 0.1
56 | CC(C)CC(=O)Nc1cc(-c2sc(-c3ncc[nH]3)c(-c3ccc(Cl)cc3Cl)c2C#N)ccn1 | < 0.1

Continued, values first:

Row | IC50 [µM] | Compound
57 | < 0.1 | Cc1nn2ccccc2c1-c1nc(-c2cccs2)c(-c2nc[nH]n2)s1
58 | 0.1 to 1 | Cc1cc(C(=O)Nc2cc(-c3sc(-c4nnc[nH]4)c(-c4ccc(Cl)cc4Cl)c3C#N)ccn2)no1
59 | 0.1 to 1 | CC(=O)Nc1cc(-c2sc(-c3nccn3Cc3ccccn3)c(-c3ccc(Cl)cc3Cl)c2C#N)ccn1
60 | < 0.1 | CC(=O)Nc1cc(-c2nc(-c3ccc(C(F)(F)F)cc3)c(-c3ncc[nH]3)s2)ccn1
61 | 0.1 to 1 | C[C@H](O)C(=O)Nc1cc(-c2sc(-c3nnc[nH]3)c(-c3ccc(Cl)cc3Cl)c2C#N)ccn1
62 | < 0.1 | COC(=O)Nc1cc(-c2cc(-c3ccc(Cl)cc3Cl)c(-c3ncc[nH]3)s2)ccn1
63 | 0.1 to 1 | Nc1cc(-c2nc(-c3ccc(Cl)cc3Cl)c(-c3ncc[nH]3)s2)ncn1
64 | < 0.1 | Cc1nn2ccccc2c1-c1nc(-c2ccccc2)c(-c2nnc[nH]2)s1
65 | < 0.1 | COC(=O)Nc1cc(-c2nc(-c3ccc(Cl)cc3Cl)c(-c3nnc(N)[nH]3)s2)ccn1
66 | < 0.1 | Cc1nc2ccc(CCCN)cn2c1-c1nc(-c2ccccc2)c(-c2nnc[nH]2)s1
67 | 0.1 to 1 | CCNC(=O)Nc1cc(-c2nc(OCC)c(-c3nc[nH]n3)s2)ccn1
68 | 0.1 to 1 | Cc1nn2ccsc2c1-c1nc(-c2nc[nH]n2)c(-c2ccccc2)s1
69 | < 0.1 | Cc1nn2ccccc2c1-c1nc(C2CCOCC2)c(-c2nnc[nH]2)s1
70 | < 0.1 | Cc1nn2ccccc2c1-c1cc(-c2ccccc2)c(-c2nnc[nH]2)s1
71 | 0.1 to 1 | COc1ncccc1-c1nc(-c2ccnc(NC(C)=O)c2)sc1-c1nnc[nH]1
72 | < 0.1 | Clc1ccc(-c2cc(-c3ccnc4sccc34)sc2-c2ncc[nH]2)c(Cl)c1
73 | < 0.1 | Cc1nn2ccsc2c1-c1nc(-c2ccccc2)c(-c2nnc[nH]2)s1
74 | < 0.1 | N#Cc1c(-c2ccnc(NC(=O)C3CC3)c2)sc(-c2ccn[nH]2)c1-c1ccc(Cl)cc1Cl
75 | < 0.1 | Cc1nc2ccc(CN(C)CCN)cn2c1-c1nc(-c2ccccc2)c(-c2nnc[nH]2)s1
76 | < 0.1 | CCCOc1nc(-c2c(C)nn3ccccc23)sc1-c1nnc[nH]1

Row | IC50 [µM] | Compound
77 | < 0.1 | Cc1nn2ccc(O)cc2c1-c1nc(-c2ccccc2)c(-c2nnc[nH]2)s1
78 | < 0.1 | Cc1nc2ccc(CN3CC[C@H](N)C3)cn2c1-c1nc(-c2ccccc2)c(-c2nnc[nH]2)s1
79 | < 0.1 | CC(=O)Nc1cc(-c2nc(-c3cc4ccccc4s3)c(-c3ncc[nH]3)s2)ccn1
80 | 0.1 to 1 | Clc1ccc(-c2cc(-c3ncnc4[nH]cnc34)sc2-c2ncc[nH]2)c(Cl)c1
81 | 0.1 to 1 | CCOc1nc(-c2ccnc(NC(=O)C(C)C)c2)sc1-c1nnc[nH]1
82 | < 0.1 | COc1cccc(F)c1-c1nc(-c2c(C)nn3ccc(OC4CCN(C(C)=O)CC4)cc23)sc1-c1nc[nH]n1
83 | < 0.1 | Cc1nn2ccc(OCCN3CCC(O)CC3)cc2c1-c1nc(-c2ccccc2)c(-c2nc[nH]n2)s1
84 | 0.1 to 1 | Clc1ccc(-c2cc(-c3ccnc4ccccc34)sc2-c2ncc[nH]2)c(Cl)c1
85 | < 0.1 | CC(=O)N1CCN(CCOc2ccn3nc(C)c(-c4nc(-c5ccccc5)c(-c5nc[nH]n5)s4)c3c2)CC1
86 | < 0.1 | N#Cc1c(-c2ccnc(NCCO)c2)sc(-c2nnc[nH]2)c1-c1ccc(Cl)cc1Cl
87 | 0.1 to 1 | N=C(N)Nc1cc(-c2cc(-c3ccc(Cl)cc3Cl)c(-c3ncc[nH]3)s2)ccn1
88 | < 0.1 | CC(=O)Nc1cc(-c2cc(-c3ccc(Cl)cc3Cl)c(-c3ncc[nH]3)s2)ncn1
89 | < 0.1 | COc1ccc(Cl)c(-c2nc(-c3ccnc(NC(C)=O)c3)sc2-c2ncc[nH]2)c1
90 | < 0.1 | CC(=O)Nc1cc(-c2sc(-c3nccn3Cc3ccccc3)c(-c3ccc(Cl)cc3Cl)c2C#N)ccn1
91 | < 0.1 | CC(C)C(=O)Nc1cc(-c2sc(-c3ncc[nH]3)c(-c3ccc(Cl)cc3Cl)c2C#N)ccn1
92 | 0.1 to 1 | Cc1nn2ccccc2c1-c1nc(-c2ccc(NC(=O)OCc3ccccc3)cc2)c(-c2nc[nH]n2)s1
93 | < 0.1 | COc1ccc(-c2ccc3nc(C)c(-c4nc(-c5ccccc5)c(-c5nc[nH]n5)s4)n3c2)cc1OC
94 | < 0.1 | CC(=O)Nc1cc(-c2nc(-c3ccccc3Cl)c(-c3ncc[nH]3)s2)ccn1
95 | < 0.1 | N#Cc1c(-c2ccnc(NC(=O)CO)c2)sc(-c2nnc[nH]2)c1-c1ccc(Cl)cc1Cl
96 | 0.1 to 1 | Cc1nn2ccccc2c1-c1nc(Cc2ccccc2)c(-c2nnc[nH]2)s1

Source: the Kinase Knowledgebase extract (Sharma et al. 2016)
